{"source": "patent US7419780B2", "about": "“Methods and assays for screening protein targets” (The Trustees of Columbia University in the City of New York, priority 2000, dated 2008)", "assay_type_in_all_cases": "cell-based, S. cerevisiae", "settings_in_all_cases": "1 uM small molecule, difference to activity without small molecule, average of two trials", "key": {"[1]": {"molecular_target": "T1, LexA (GSG)2rGR2 / B42 (GSG)2eDHFR (UniProt P06536+P0ABQ4, C656G/F620S)", "T1 construct": "rat Glucocorticoid Receptor (aa 524-795) with point mutations; expressed in transfected cells; host or cells: S. cerevisiae FY250", "T1 sequence (P06536 524-795 F620S/C656G limits assumed)": "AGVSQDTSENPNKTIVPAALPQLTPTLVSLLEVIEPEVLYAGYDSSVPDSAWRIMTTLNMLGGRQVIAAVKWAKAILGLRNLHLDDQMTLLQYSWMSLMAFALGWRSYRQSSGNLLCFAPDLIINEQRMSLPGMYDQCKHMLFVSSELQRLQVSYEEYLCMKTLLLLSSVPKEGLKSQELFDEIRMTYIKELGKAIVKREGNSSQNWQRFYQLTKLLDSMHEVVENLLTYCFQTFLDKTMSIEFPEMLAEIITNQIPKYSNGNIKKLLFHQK", "T1 sequence (P0ABQ4 1-159)": "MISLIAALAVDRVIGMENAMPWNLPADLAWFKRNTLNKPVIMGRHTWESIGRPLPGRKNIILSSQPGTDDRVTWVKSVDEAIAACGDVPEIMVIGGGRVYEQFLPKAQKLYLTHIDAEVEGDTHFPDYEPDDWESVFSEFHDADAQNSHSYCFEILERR", "test": "β-galactosidase activity assay, strain V510Y", "source_text": "(§1) Table III explains the components of each strain. Each strain was constructed from the parent yeast strain FY250 and also contains the pMW106 plasmid, which has the LacZ reporter gene that is turned on only in when the LexA DNA binding domain and the B42 activation are brought in tot he vicinity of each other. We use several different strains because we use DHFR from two different species, mDHFR is from murine, while eDHFR is from E. coli. We are asl oable to switch the small moleculebinding domains. For example, the strain containing LexA-eDHFR with B42-rGH2 is a different strain and behaves differently from the strain containing LexA-rGR2 with B42-eDHFR. We also put in short 6 amino acid linkers between the two domains of our protein chimeras and thus these are different strain as well.\n(§2) The results in Table IV are averages of two separate trials. Each strain was examined with small molecules and without small molecules. The absolute activity is given as the β-galactisidase activity […]. The average β-galactosidse activity for a strain without small molecule (i.e. the negative control) was about 100 β-galactosidase units."}, "[2]": {"molecular_target": "T2, LexA (GSG)2mDHFR / B42 rGR2 (UniProt P00375+P06536, C656G/F620S)", "T2 construct": "rat Glucocorticoid Receptor (aa 524-795) with point mutations; expressed in transfected cells; host or cells: S. cerevisiae FY250", "T2 sequence (P00375 1-187)": "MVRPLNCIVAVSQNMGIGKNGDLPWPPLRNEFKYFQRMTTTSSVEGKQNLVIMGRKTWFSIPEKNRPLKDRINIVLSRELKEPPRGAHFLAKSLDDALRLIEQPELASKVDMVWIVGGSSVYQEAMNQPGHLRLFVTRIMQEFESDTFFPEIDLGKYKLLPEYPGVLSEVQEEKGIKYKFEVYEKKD", "T2 sequence (P06536 524-795 F620S/C656G limits assumed)": "T1 sequence (P06536 524-795 F620S/C656G limits assumed)", "test": "β-galactosidase activity assay, strain V502Y", "source_text": "as §1, §2"}, "[3]": {"molecular_target": "T3, LexA (GSG)2rGR2 / B42 (GSG)2mDHFR (UniProt P00375+P06536, C656G/F620S)", "T3 construct": "rat Glucocorticoid Receptor (aa 524-795) with point mutations; expressed in transfected cells; host or cells: S. cerevisiae FY250", "T3 sequence (P06536 524-795 F620S/C656G limits assumed)": "T1 sequence (P06536 524-795 F620S/C656G limits assumed)", "T3 sequence (P00375 1-187)": "T2 sequence (P00375 1-187)", "test": "β-galactosidase activity assay, strain V512Y", "source_text": "as §1, §2"}, "[4]": {"molecular_target": "T4, LexA eDHFR / B42 gly6rGR2 (UniProt P06536+P0ABQ4, C656G/F620S)", "T4 construct": "rat Glucocorticoid Receptor (aa 524-795) with point mutations; expressed in transfected cells; host or cells: S. cerevisiae FY250", "T4 sequence (P0ABQ4 1-159)": "T1 sequence (P0ABQ4 1-159)", "T4 sequence (P06536 524-795 F620S/C656G limits assumed)": "T1 sequence (P06536 524-795 F620S/C656G limits assumed)", "test": "β-galactosidase activity assay, strain V375Y", "source_text": "as §1, §2"}, "[5]": {"molecular_target": "T5, LexA (GSG)2rGR2 / B42 eDHFR (UniProt P06536+P0ABQ4, C656G/F620S)", "T5 construct": "expressed in transfected cells; host or cells: S. cerevisiae FY250 with pMW106 lacZ reporter", "T5 sequence (P06536 524-795 F620S/C656G limits assumed)": "T1 sequence (P06536 524-795 F620S/C656G limits assumed)", "T5 sequence (P0ABQ4 1-159)": "T1 sequence (P0ABQ4 1-159)", "test": "β-galactosidase activity assay, strain V506Y", "source_text": "as §1, §2"}, "[6]": {"molecular_target": "T6, LexA (GSG)2eDHFR / B42 rGR2 (UniProt P06536+P0ABQ4, C656G/F620S)", "T6 construct": "rat Glucocorticoid Receptor (aa 524-795) with point mutations; expressed in transfected cells; host or cells: S. cerevisiae FY250", "T6 sequence (P0ABQ4 1-159)": "T1 sequence (P0ABQ4 1-159)", "T6 sequence (P06536 524-795 F620S/C656G limits assumed)": "T1 sequence (P06536 524-795 F620S/C656G limits assumed)", "test": "β-galactosidase activity assay, strain V498Y", "source_text": "as §1, §2"}, "LexA eDHFR / B42 rGR2": {"molecular_target": "T7, LexA eDHFR / B42 rGR2 (UniProt P06536+P0ABQ4, C656G/F620S)", "T7 construct": "rat Glucocorticoid Receptor (aa 524-795) with point mutations; expressed in transfected cells; host or cells: S. cerevisiae FY250", "T7 sequence (P0ABQ4 1-159)": "T1 sequence (P0ABQ4 1-159)", "T7 sequence (P06536 524-795 F620S/C656G limits assumed)": "T1 sequence (P06536 524-795 F620S/C656G limits assumed)", "test": "β-galactosidase activity assay, strain V493Y", "source_text": "as §1, §2"}, "[7]": {"molecular_target": "T8, LexA rGR2 / B42 (GSG)2mDHFR (UniProt P00375+P06536, C656G/F620S)", "T8 construct": "expressed in transfected cells; host or cells: S. cerevisiae FY250 with pMW106 lacZ reporter", "T8 sequence (P06536 524-795 F620S/C656G limits assumed)": "T1 sequence (P06536 524-795 F620S/C656G limits assumed)", "T8 sequence (P00375 1-187)": "T2 sequence (P00375 1-187)", "test": "β-galactosidase activity assay, strain V511Y", "source_text": "as §1, §2"}, "[8]": {"molecular_target": "T9, LexA (GSG)2mDHFR / B42 (GSG)rGR2 (UniProt P00375+P06536, C656G/F620S)", "T9 construct": "rat Glucocorticoid Receptor (aa 524-795) with point mutations; expressed in transfected cells; host or cells: S. cerevisiae FY250", "T9 sequence (P00375 1-187)": "T2 sequence (P00375 1-187)", "T9 sequence (P06536 524-795 F620S/C656G limits assumed)": "T1 sequence (P06536 524-795 F620S/C656G limits assumed)", "test": "β-galactosidase activity assay, strain V504Y", "source_text": "as §1, §2"}, "[9]": {"molecular_target": "T10, LexA (GSG)2mDHFR / B42 gly6rGR2 (UniProt P00375+P06536, C656G/F620S)", "T10 construct": "expressed in transfected cells; host or cells: S. cerevisiae FY250 with pMW106 lacZ reporter", "T10 sequence (P00375 1-187)": "T2 sequence (P00375 1-187)", "T10 sequence (P06536 524-795 F620S/C656G limits assumed)": "T1 sequence (P06536 524-795 F620S/C656G limits assumed)", "test": "β-galactosidase activity assay, strain V503Y", "source_text": "as §1, §2"}}}
{"smiles": "C[C@@H]1C[C@H]2C3CCC4=CC(=O)C=C[C@]4(C)[C@@]3(F)[C@@H](O)C[C@]2(C)[C@@]1(O)C(=O)NCCSCCCCCCCCCCSCC[C@H](NC(=O)c1ccc(N(C)Cc2cnc3nc(N)nc(N)c3n2)cc1)C(=O)O", "note": "(stereo partly shown) [D10M]", "values": [{"measurement": "B-gal activity", "setting": "[1]", "result": "2314 β-galactosidase units"}, {"measurement": "B-gal activity", "setting": "[2]", "result": "497 β-galactosidase units"}, {"measurement": "B-gal activity", "setting": "[3]", "result": "6 β-galactosidase units"}, {"measurement": "B-gal activity", "setting": "[4]", "result": "9993 β-galactosidase units"}, {"measurement": "B-gal activity", "setting": "[5]", "result": "2561 β-galactosidase units"}, {"measurement": "B-gal activity", "setting": "[6]", "result": "2926 β-galactosidase units"}, {"measurement": "B-gal activity", "setting": "LexA eDHFR / B42 rGR2", "result": "5812 β-galactosidase units"}, {"measurement": "B-gal activity", "setting": "[7]", "result": "−60 β-galactosidase units"}, {"measurement": "B-gal activity", "setting": "[8]", "result": "556 β-galactosidase units"}, {"measurement": "B-gal activity", "setting": "[9]", "result": "1132 β-galactosidase units"}]}
